Holding throughout (experiment): SPR, single-cycle kinetics, […] model, CalpL amine-coupled to CM5 chip
Common to all, as to type: binding
Holding throughout (conditions): 20 mM Tris pH 8, 50 mM NaCl, 0.05% Tween20, 25 °C
For orientation: Surface plasmon resonance follows binding to a sensor surface in real time, without labels.

The target in assay [1] is T1, CalpL (Sulfurihydrogenibium sp. YO3AOP1, UniProt Z9OF32SUC9, H345A).
T1 construct: codon-optimized CalpL, Lon protease domain plus C-terminal SAVED domain; N-terminal 10xHis-TEV tag removed by TEV protease; expressed in E. coli BL21(DE3); monomer that oligomerizes with cA4
T1 sequence (Z9OF32SUC9 2-496 H345A): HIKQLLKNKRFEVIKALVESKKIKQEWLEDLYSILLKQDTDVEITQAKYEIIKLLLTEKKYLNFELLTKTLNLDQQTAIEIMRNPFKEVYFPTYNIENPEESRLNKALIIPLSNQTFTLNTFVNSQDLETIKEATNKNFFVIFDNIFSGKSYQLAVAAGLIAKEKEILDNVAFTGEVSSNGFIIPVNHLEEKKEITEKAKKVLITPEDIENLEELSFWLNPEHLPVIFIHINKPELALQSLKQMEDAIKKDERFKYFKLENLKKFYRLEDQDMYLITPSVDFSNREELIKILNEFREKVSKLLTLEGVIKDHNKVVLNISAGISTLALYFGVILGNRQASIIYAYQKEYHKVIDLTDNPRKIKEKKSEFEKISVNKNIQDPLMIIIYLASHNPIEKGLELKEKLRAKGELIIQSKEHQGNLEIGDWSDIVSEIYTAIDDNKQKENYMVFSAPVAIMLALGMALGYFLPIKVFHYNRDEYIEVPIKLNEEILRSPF

The target of assay [2] is T2, CalpL (Sulfurihydrogenibium sp. YO3AOP1, UniProt Z9OF32SUC9, H474A).
T2 construct: codon-optimized CalpL, Lon protease domain plus C-terminal SAVED domain; N-terminal 10xHis-TEV tag removed by TEV protease; expressed in E. coli BL21(DE3); monomer that oligomerizes with cA4
T2 sequence (Z9OF32SUC9 2-496 H474A): T1 sequence (Z9OF32SUC9 2-496 H345A) with A344H, H473A

For assay [3], the target named is T3, CalpL (Sulfurihydrogenibium sp. YO3AOP1, UniProt Z9OF32SUC9).
T3 construct: codon-optimized CalpL, Lon protease domain plus C-terminal SAVED domain; N-terminal 10xHis-TEV tag removed by TEV protease; expressed in E. coli BL21(DE3); monomer that oligomerizes with cA4
T3 sequence (Z9OF32SUC9 2-496): T1 sequence (Z9OF32SUC9 2-496 H345A) with A344H

The target of assay [4] is T3, CalpL. This is another data set of the same source.
For assay [5], the target named is T4, CalpL (Sulfurihydrogenibium sp. YO3AOP1, UniProt Z9OF32SUC9, H392A).
T4 construct: codon-optimized CalpL, Lon protease domain plus C-terminal SAVED domain; N-terminal 10xHis-TEV tag removed by TEV protease; expressed in E. coli BL21(DE3); monomer that oligomerizes with cA4
T4 sequence (Z9OF32SUC9 2-496 H392A): T1 sequence (Z9OF32SUC9 2-496 H345A) with A344H, H391A

In assay [6] the target is T5, CalpL (Sulfurihydrogenibium sp. YO3AOP1, UniProt Z9OF32SUC9, R361E).
T5 construct: codon-optimized CalpL, Lon protease domain plus C-terminal SAVED domain; N-terminal 10xHis-TEV tag removed by TEV protease; expressed in E. coli BL21(DE3); monomer that oligomerizes with cA4
T5 sequence (Z9OF32SUC9 2-496 R361E): T1 sequence (Z9OF32SUC9 2-496 H345A) with A344H, R360E

The target in assay [7] is T6, CalpL (Sulfurihydrogenibium sp. YO3AOP1, UniProt Z9OF32SUC9, R361A).
T6 construct: codon-optimized CalpL, Lon protease domain plus C-terminal SAVED domain; N-terminal 10xHis-TEV tag removed by TEV protease; expressed in E. coli BL21(DE3); monomer that oligomerizes with cA4
T6 sequence (Z9OF32SUC9 2-496 R361A): T1 sequence (Z9OF32SUC9 2-496 H345A) with A344H, R360A

Numbering of substitutions follows the chain as printed. Read-outs that look alike come from different tables or passages of the source.

On to `Nc1ncnc2c1ncn2[C@@H]1O[C@@H]2COP(=O)(O)O[C@H]3[C@@H](F)[C@H](n4cnc5c(N)ncnc54)O[C@@H]3COP(=O)(O)O[C@H]3[C@@H](F)[C@H](n4cnc5c(N)ncnc54)O[C@@H]3COP(=O)(O)O[C@H]3[C@@H](F)[C@H](n4cnc5c(N)ncnc54)O[C@@H]3COP(=O)(O)O[C@H]2[C@H]1F` [2′F-cA4], for which the Kd amounted to 18.9 nM at CalpL [1]; 0.224 nM at CalpL [2]; 1 nM on CalpL [3] (non-hydrolysable analogue, read-out: KD).
With `Nc1ncnc2c1ncn2[C@@H]1O[C@H](COP(=O)(O)O[C@H]2[C@@H](O)[C@H](n3cnc4c(N)ncnc43)O[C@@H]2CO)[C@@H](OP(=O)(O)O)[C@H]1O` [A2], the KD entry at CalpL [4] was “decrease in affinity of CalpL towards A4 and A2 compared to cA4”.
As to `Nc1ncnc2c1ncn2[C@@H]1O[C@H](COP(=O)(O)O[C@H]2[C@@H](O)[C@H](n3cnc4c(N)ncnc43)O[C@@H]2COP(=O)(O)O[C@H]2[C@@H](O)[C@H](n3cnc4c(N)ncnc43)O[C@@H]2COP(=O)(O)O[C@H]2[C@@H](O)[C@H](n3cnc4c(N)ncnc43)O[C@@H]2CO)[C@@H](OP(=O)(O)O)[C@H]1O` [A4], the Kd was determined as 1.72 nM at CalpL [5] and 158 nM at CalpL [3] (apparent, read-out: apparent KD).
As to `Nc1ncnc2c1ncn2[C@@H]1O[C@@H]2COP(=O)(O)O[C@H]3[C@@H](O)[C@H](n4cnc5c(N)ncnc54)O[C@@H]3COP(=O)(O)O[C@H]3[C@@H](O)[C@H](n4cnc5c(N)ncnc54)O[C@@H]3COP(=O)(O)O[C@H]3[C@@H](O)[C@H](n4cnc5c(N)ncnc54)O[C@@H]3COP(=O)(O)O[C@H]2[C@H]1O` [cA4], the Kd at CalpL [6] is 1 nM; on CalpL [5], 0.0308 nM; at CalpL [7] it was 0.87 nM; at CalpL [1] it was 68.7 nM; at CalpL [2], 48.6 nM; at CalpL [3] (apparent: ligand cleaved on the chip, depends on immobilization density, read-out: apparent KD), 50 nM.

The record behind these values is publication PMC11417357, “The SAVED domain of the type III CRISPR protease CalpL is a ring nuclease” (Nucleic Acids Research, 2024).
